Measured values reported in patent US20220184086A1, “PLK1 INHIBITORS AND PSA LEVELS IN PROSTATE CANCER” (Cardiff Oncology, Inc., priority 2019, published 2022).
Like-named read-outs stand apart in the source and are kept apart here.

Tests used:
CYP2D6 = biological target: T1, CYP2D6 (Homo sapiens, UniProt P10635); experiment: Inhibition of human cytochrome P450s, human liver microsomes; format: in vitro ADME; settings: Bufuralol 1-hydroxylation, mean ± SEM
T1 construct: was investigated using human liver microsomes; from tissue; host or cells: human liver microsomes
T1 sequence (P10635 whole entry): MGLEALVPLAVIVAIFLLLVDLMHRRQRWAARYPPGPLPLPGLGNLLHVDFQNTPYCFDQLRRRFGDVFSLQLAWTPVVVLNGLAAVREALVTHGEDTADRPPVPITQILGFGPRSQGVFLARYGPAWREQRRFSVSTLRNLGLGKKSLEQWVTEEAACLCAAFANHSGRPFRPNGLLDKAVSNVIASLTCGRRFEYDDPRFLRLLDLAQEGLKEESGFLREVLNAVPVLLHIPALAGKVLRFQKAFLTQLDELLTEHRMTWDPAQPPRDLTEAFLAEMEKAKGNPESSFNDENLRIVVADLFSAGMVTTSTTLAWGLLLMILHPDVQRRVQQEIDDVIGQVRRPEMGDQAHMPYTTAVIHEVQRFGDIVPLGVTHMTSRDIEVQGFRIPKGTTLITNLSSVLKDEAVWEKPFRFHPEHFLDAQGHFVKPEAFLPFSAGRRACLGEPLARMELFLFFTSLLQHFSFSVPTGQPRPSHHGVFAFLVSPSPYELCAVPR

CYP2C9 = biological target: T2, CYP2C9 (Homo sapiens, UniProt P11712); experiment: as above; format: in vitro ADME; settings: Diclofenac 4-hydroxylation, mean ± SEM
T2 construct: was investigated using human liver microsomes; from tissue; host or cells: human liver microsomes
T2 sequence (P11712 whole entry): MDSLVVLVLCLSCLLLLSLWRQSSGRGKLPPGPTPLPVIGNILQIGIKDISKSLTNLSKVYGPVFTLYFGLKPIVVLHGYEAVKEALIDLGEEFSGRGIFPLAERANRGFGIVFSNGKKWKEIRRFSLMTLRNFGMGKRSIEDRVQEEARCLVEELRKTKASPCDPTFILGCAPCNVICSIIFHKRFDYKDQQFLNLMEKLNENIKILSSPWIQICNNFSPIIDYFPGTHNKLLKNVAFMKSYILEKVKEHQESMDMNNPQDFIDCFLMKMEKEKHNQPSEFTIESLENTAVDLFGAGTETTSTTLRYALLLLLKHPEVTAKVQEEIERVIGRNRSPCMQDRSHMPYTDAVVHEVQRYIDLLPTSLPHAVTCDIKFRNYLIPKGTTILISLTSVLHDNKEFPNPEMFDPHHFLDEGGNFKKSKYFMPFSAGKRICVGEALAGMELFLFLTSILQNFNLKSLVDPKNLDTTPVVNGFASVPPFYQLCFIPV

[1] = rodent and nonrodent species; cited from earlier work
[2] = system: adult patients with advanced/metastatic solid tumors; settings: cited from earlier work
CYP2C19 = biological target: T3, CYP2C19 (Homo sapiens, UniProt P33261); experiment: Inhibition of human cytochrome P450s, human liver microsomes; format: in vitro ADME; settings: Mephenytoin 4-hydroxylation, mean ± SEM
T3 construct: was investigated using human liver microsomes; from tissue; host or cells: human liver microsomes
T3 sequence (P33261 whole entry): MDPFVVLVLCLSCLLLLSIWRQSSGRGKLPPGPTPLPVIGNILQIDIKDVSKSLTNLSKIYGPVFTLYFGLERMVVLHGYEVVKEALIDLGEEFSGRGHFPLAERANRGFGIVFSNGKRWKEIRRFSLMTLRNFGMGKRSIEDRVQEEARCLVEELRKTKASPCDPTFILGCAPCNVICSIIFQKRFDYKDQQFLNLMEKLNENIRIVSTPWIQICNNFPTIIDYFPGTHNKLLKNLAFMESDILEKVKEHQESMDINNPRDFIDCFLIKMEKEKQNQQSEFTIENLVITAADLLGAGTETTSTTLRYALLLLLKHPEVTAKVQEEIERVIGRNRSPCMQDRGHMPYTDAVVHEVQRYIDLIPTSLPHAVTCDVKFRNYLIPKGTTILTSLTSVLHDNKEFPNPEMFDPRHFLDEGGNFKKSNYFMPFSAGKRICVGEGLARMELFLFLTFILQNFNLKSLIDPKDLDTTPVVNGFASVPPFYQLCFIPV

CYP1A2 = biological target: T4, CYP1A2 (Homo sapiens, UniProt P05177); experiment: as above; format: in vitro ADME
T4 construct: was investigated using human liver microsomes; from tissue; host or cells: human liver microsomes
T4 sequence (P05177 1-516): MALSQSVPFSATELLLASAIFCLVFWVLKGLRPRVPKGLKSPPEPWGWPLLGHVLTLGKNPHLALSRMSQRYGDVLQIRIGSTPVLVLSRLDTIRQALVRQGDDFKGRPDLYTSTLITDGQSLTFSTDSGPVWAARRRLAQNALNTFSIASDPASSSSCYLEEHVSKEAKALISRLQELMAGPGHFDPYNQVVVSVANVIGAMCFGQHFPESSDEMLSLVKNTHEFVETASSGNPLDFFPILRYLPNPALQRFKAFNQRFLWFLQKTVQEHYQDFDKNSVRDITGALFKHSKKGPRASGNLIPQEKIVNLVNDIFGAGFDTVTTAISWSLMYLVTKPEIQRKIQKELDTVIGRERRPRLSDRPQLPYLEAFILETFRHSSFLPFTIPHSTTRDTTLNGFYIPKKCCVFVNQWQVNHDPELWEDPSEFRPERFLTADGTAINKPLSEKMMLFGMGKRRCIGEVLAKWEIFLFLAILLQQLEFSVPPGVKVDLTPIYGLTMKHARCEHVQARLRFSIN

[3] = system: circulating tumor cells (CTC); experiment: Phase 2 study: circulating tumor cell (CTC) evaluation; format: in vivo, human; settings: for CTC Fold Change: C1D1 to C5D1; for CTC Count (C5D1): onvansertib+abiraterone
Protocol: Circulating tumor cell (CTC) evaluation, reported as favorable or unfavorable (<5 vs.≥CTC/7.5 ml of blood), is shown in FIG. 8. At baseline, 25 (78%) patients had unfavorable CTC count with median of 19 CTC/7.5 ml. Ten of the unfavorable patients were re-analyzed after 12 weeks of treatment.

[4] = Phase 2 study Arm A: absolute neutrophil counts (ANC); format: in vivo, human; settings: 7 patients plotted, patients 02-002 and 02-005
Protocol: To evaluate this further, neutrophil levels were assessed for patients within Arm A of the current trial. Absolute neutrophil counts (ANC) are plotted in FIG. 3 for 7 patients, with ANC 1.5 indicated as the threshold for Grade 2 (CTCAE version 4.03). Two patients experienced ≥Grade 2 neutropenia after the first cycle of treatment (02-002 and 02-005).

[5] = system: patients with metastatic castration-resistant prostate cancer (mCRPC)
CYP3A4 = biological target: T5, CYP3A4 (Homo sapiens, UniProt P08684); experiment: Inhibition of human cytochrome P450s, human liver microsomes; format: in vitro ADME; settings: mean ± SEM
T5 construct: was investigated using human liver microsomes; from tissue; host or cells: human liver microsomes
T5 sequence (P08684 whole entry): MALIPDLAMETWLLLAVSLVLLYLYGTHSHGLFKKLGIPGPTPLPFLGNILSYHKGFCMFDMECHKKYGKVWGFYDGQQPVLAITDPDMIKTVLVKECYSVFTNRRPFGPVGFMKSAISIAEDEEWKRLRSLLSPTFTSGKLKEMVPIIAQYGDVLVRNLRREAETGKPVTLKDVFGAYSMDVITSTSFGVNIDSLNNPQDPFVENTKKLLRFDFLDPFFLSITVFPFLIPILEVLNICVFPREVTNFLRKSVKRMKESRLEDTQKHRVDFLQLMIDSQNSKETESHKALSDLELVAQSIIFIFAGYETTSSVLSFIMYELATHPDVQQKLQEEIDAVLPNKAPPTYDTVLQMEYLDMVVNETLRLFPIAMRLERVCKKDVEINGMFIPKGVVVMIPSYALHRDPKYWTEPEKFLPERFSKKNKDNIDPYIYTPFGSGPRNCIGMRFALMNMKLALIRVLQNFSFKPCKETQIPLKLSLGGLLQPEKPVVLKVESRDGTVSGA

[6] = system: cell lines, both from solid as well as hematologic tumors; settings: large number of cell lines; cited from earlier work
xenograft tumor = settings: mice, oral administration, well tolerated doses; cited from earlier work
[7] = Pharmacokinetics from the prior phase 1 trial; format: in vivo; settings: 24 mg/m^2 dose
Description: This is consistent with the observed downward changes of PSA values for patients shown above.

CYP2C8 = biological target: T6, CYP2C8 (Homo sapiens, UniProt P10632); experiment: Inhibition of human cytochrome P450s, human liver microsomes; format: in vitro ADME
T6 construct: was investigated using human liver microsomes; from tissue; host or cells: human liver microsomes
T6 sequence (P10632 1-490): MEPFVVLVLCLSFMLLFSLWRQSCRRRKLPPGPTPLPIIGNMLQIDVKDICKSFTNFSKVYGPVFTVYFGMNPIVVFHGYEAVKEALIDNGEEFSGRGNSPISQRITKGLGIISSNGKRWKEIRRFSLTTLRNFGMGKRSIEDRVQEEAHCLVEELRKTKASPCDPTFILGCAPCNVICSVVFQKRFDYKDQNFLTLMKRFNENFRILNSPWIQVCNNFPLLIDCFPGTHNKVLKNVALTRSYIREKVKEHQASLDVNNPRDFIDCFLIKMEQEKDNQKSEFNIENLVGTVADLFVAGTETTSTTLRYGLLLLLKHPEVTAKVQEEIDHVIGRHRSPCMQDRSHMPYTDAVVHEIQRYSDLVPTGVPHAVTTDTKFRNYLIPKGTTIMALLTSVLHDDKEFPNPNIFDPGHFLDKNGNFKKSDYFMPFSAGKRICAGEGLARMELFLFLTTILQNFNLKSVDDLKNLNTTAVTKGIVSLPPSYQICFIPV

[8] = ten patients with unfavorable baseline CTC re-analyzed after 12 weeks of treatment

CN1CCN(c2ccc(OC(F)(F)F)c(Nc3ncc4c(n3)-c3c(c(C(N)=O)nn3CCO)CC4)c2)CC1 [onvansertib, 1-(2-hydroxyethyl)-8-{[5-(4-methylpiperazin-1-yl)-2-(trifluoromethoxy)phenyl]amino}-4,5-dihydro-1H-pyrazolo[4,3-h]quinazoline-3-carboxamide]
IC50 (CYP2D6): 26.8 ± 5.4 µM | IC50 (CYP2C9): 20.4 ± 3.2 µM | oral bioavailability [1]: good oral bioavailability | DLTs observed ([2]; 36 mg/m^2/day, four patients treated): two | patients who developed DLTs ([2]; 48 mg/m^2/day): 2 of 3 | dose-limiting toxicities (DLT) ([2]; first 3 dose levels (6, 12, and 24 mg/m^2/day)): No DLTs | outcome of the one evaluable patient with prostate cancer ([2]; in vivo): disease progression | primary toxicities ([2]; in vivo): thrombocytopenia and neutropenia | best observed treatment response: disease stabilization ([2]; of the 16 evaluable patients): 5 patients | maximum tolerated dose (MTD) ([2]; oral, 5 consecutive days every 3 weeks): 24 mg/m^2/day | recovery of hematologic toxicities ([2]; thrombocytopenia and neutropenia, reversible): ≤ 3 weeks | IC50 (CYP2C19): 36.9 ± 15.7 µM | inhibitory effects against CYP1A2 (CYP1A2): No significant inhibitory effects | IC50 (CYP1A2; Tacrine 1-hydroxylation): > 100 µM | CTC Fold Change ([3]; patient 02-003): 17.9 | CTC Count (C5D1) ([3]; patient 02-003, CTC count at C1D1 4.4): 78.6 | CTC Fold Change ([3]; patient 02-007): 6.9 | CTC Count (C5D1) ([3]; patient 02-007, CTC count at C1D1 2.5): 17.3 | CTC Fold Change ([3]; patient 03-004): 3.0 | CTC Count (C5D1) ([3]; patient 03-004, CTC count at C1D1 0.4): 1.2 | CTC Fold Change ([3]; patient 03-009): 1.5 | CTC Count (C5D1) ([3]; patient 03-009, CTC count at C1D1 3.7): 5.4 | CTC Fold Change ([3]; patient 03-013): 1.4 | CTC Count (C5D1) ([3]; patient 03-013, CTC count at C1D1 2.2): 3.0 | median time on treatment ([3]; patients with decrease CTC (n=5), to-date): 7 months | median time on treatment ([3]; patients with increase CTC (n=5)): 5 months | patients converted from unfavorable to favorable CTC level (<5 CTC/7.5 ml) [3, 8]: 40% | patients with a ≥80% CTC decrease [3, 8]: 50% | patients with no detectable CTC [3, 8]: 30% | patients with ≥Grade 2 neutropenia after the first cycle [4]: Two | patients with disease stabilization after 5 or more treatment cycles ([5]; 03-013 (Arm A) and 01-024 (Arm B)): two | initial PSA stabilization or decrease in AR-V7+ subjects ([5]; AR-V7+ subjects (n=4), August 2019): all | AR-V7 positive patients achieving the primary endpoint of stable disease ([5]; AR-V7 positive patients who completed 3 months of treatment): Three of 4 | initial PSA stabilization or decrease in AR-V7 positive patients ([5]; AR-V7 positive patients who completed at least 1 cycle (n=5)): all | patients achieving the efficacy endpoint (PSA stabilization) ([5]; Arm A (n=14)): 5 patients | patients remaining on treatment for >1 year ([5]; Arm A (n=14)): 2 patients | patients with SD or PR at 12 weeks ([5]; Arm A (n=14), 8 of 14): 57% | patients who have or had progression-free survival ([5]; Arm A, 3 of 14): 21% | PSA values at day 8 relative to baseline ([5]; Arm A, after dosing on days 1-5, with abiraterone and prednisone, then increase until next cycle): go down | subjects with initial disease stabilization or reduction, based on PSA levels ([5]; Arm B): 3 subjects | patients achieving the efficacy endpoint (PSA stabilization) ([5]; Arm B (n=5)): 3 patients | patients with SD at 12 weeks ([5]; Arm B (n=5), 4 of 5): 80% | patients who have or had progression-free survival of >7 months ([5]; Arm B, 3 of 5): 60% | tumor shrinkage by CT scan at the end of the study ([5]; Patient 03-013 (AR-V7), Arm A): ~30% | PSA level increase after onvansertib was added ([5]; Patient 03-013 (AR-V7), Arm A, 84 days, with abiraterone/prednisone): 8.4% | PSA level above the baseline (C1D1) PSA level ([5]; Patient 03-013, Arm A, into the fifth cycle): below 25% | patients with decreases in PSA levels ([5]; after 1 cycle of treatment with addition of onvansertib, eighteen out of 25): 72% | AR-V7+ patients who met the primary efficacy endpoint ([5]; of AR-V7+ subjects (n=4), 03-013, 01-024): Two | patients confirmed AR-V7+ that have shown a PSA response ([5]; patients who completed 4 cycles (12 weeks), onvansertib added to abiraterone): 2 of 6 | IC50 (CYP3A4; Midazolam l′-hydroxylation): 66.2 ± 4 µM | IC50 (CYP3A4; Testosterone 6β-hydroxylation): 52.7 ± 9.8 µM | activity in proliferation assays [6]: low nanomolar activity | xenograft tumor growth (xenograft tumor): inhibits xenograft tumor growth | time at which the amount of onvansertib is below the 10×IC50 value [7]: 160 h | concentration at 290 h ([7]; human, plasma, oral, 0.1 ng/ml is the limit of quantitation, read-out: drug concentrations at 290 hours (˜12 days)): < 0.1 ng/mL | IC50 (CYP2C8): 20.2 ± 1.6 µM
